The assay relates to P. aeruginosa ATCC 27853. Kind of assay: Checkerboard assay EtDip with colistin. Type of assay: cell-based, Pseudomonas aeruginosa. As to conditions: CAMB and + 150 mM NaCl; not in the presence of CaCl2. On the procedure: The interactions between pairs of compounds were analyzed using checkerboard assays in a 384-well microtiter plate with an assay volume of 20 µL. Immediately before the test runs, the bacterial cultures were diluted in CAMB to a density of 5 × 10^5 cells/mL. The two compounds for combinatorial testing were arrayed as 10-fold concentrated serial dilutions with respect to the final concentration, vertically for one compound and horizontally for the other, in the same 384-well microplate. Subsequently, we transferred 2-µL aliquots to new 384-well microtiter plates, and growth inhibition in each well was determined, as described for the MIC values above. Fractional inhibitory concentration (FIC) and FICindex values for each combination were calculated using the following formulae, where a
FICindex ≤0.5 indicates synergy and a FICindex >4 indicates antagonism.
FIC for compound A = MIC of compound A in combination/MIC of compound A
FIC for compound B = MIC of compound B in combination/MIC of compound B

On to “QFNMQGGGSPRQGFDVNANARFPIWQSQNARNSVHGTASYAQHLGGPYGNSRPNFGGGLQFT [EtDip, diptericin-like peptide of Eristalis tenax]”, for which the “interaction with colistin (FICindex)” value is “Synergistic interactions”.

Source of the values: publication PMC7284870, “Antimicrobial Peptides from Rat-Tailed Maggots of the Drone Fly Eristalis tenax Show Potent Activity against Multidrug-Resistant Gram-Negative Bacteria” (Microorganisms, 2020).
